Our source for the IC50 values is ChEMBL document CHEMBL1152324, “Protolimonoids from Melia toosendan” (J Nat Prod, 2009).

Common to all, as to format: functional, cell-based
One assay deals with HL-60. Put plainly: Cytotoxicity against human HL60 cells by SRB assay.
Another assay concerns HT-29. Put plainly: Cytotoxicity against human HT-29 cells by SRB assay.
A further assay concerns MCF7. Briefly: Cytotoxicity against human MCF7 cells by SRB assay.

Regarding `COc1cccc2c1C(=O)c1c(O)c3c(c(O)c1C2=O)C[C@@](O)(C(=O)CO)C[C@@H]3O[C@H]1C[C@H](N)[C@H](O)[C@H](C)O1` [DOXORUBICIN], the IC50 came to 0.016 µM in the assay on HL-60, 0.33 µM with HT-29 and 0.12 µM with MCF7.
Taken in the same sequence, the figures for `CC(C)=CCCC(C(=O)O)[C@@H]1[C@@H](O)C[C@]2(C)C3=CC[C@H]4C(C)(C)[C@@H](O)CC[C@]4(C)[C@H]3CC[C@@]12C` (some centres not stated) [TOOSENDANIC ACID A] were under 10 µM, under 10 µM and under 10 µM.
Consider `CC(C)=CCCC(C(=O)O)[C@@H]1[C@@H](O)C[C@]2(C)C3=CC[C@H]4C(C)(C)[C@H](O)CC[C@]4(C)[C@H]3CC[C@@]12C` (some centres not stated) [TOOSENDANIC ACID B], for which the IC50 with HL-60, in the assay on HT-29 and in the assay with MCF7 was under 10 µM each time.
On to `CC(C)(O)[C@@H]1CC[C@H]([C@@H]2[C@@H](O)C[C@]3(C)C4=CC[C@H]5C(C)(C)C(=O)CC[C@]5(C)[C@H]4CC[C@@]23C)[C@H]1O` [TOOSENDANONE A], for which the IC50 in the assay on HL-60, with HT-29 and in the assay with MCF7 was under 10 µM throughout.
